Several values for one entry are separate records, joined by “and”; a condition that tells them apart may be missing. Equal values may be shown once.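 Interpolation was linear, between the two tested concentrations surrounding the appropriate level; five concentrations were tested over 48 hours in 96-well plates. GI50 marks 50% less growth. TGI is the concentration that stops growth completely.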
What was measured:
Assay in all cases: inhibition of tumour cell growth, NCI panel, 48 h
[1] = test system: DU-145 prostate
[2] = test system: MALME-3M melanoma
[3] = test system: HCT-15 colon
[4] = test system: SR leukemia
[5] = test system: SK-MEL-28 melanoma
[6] = test system: PC-3 prostate
[7] = test system: RPMI-8226 leukemia
[8] = test system: SK-MEL-2 melanoma
[9] = test system: MOLT-4 leukemia
[10] = test system: UACC-62 melanoma

| Structure (SMILES) | TGI [1] | TGI [2] | TGI [3] | TGI [4] | TGI [5] | TGI [6] | TGI [7] | TGI [8] | TGI [9] | TGI [10] | GI50 [1] | GI50 [2] | GI50 [3] | GI50 [5] | GI50 [6] | GI50 [7] | GI50 [8] | GI50 [9] | GI50 [10] | GI50 [4] |
| --- | --- | --- | --- | --- | --- | --- | --- | --- | --- | --- | --- | --- | --- | --- | --- | --- | --- | --- | --- | --- |
| COC(=O)c1cccc(COc2ccc([N+](=O)[O-])cc2Cl)c1 | > 100 µM | > 100 µM | > 100 µM | > 100 µM | > 100 µM | > 100 µM | > 100 µM | > 100 µM | > 100 µM | > 100 µM | – | – | – | – | – | – | – | – | – | – |
| N[C@@H](Cc1ccc(N(CCCl)CCCl)cc1)C(=O)O | 85.7 µM and 227 µM | 30.5 µM and 35.3 µM and 66 µM | > 100 µM and 54.9 µM and 133 µM | 39.1 µM and 71.4 µM | > 100 µM and 73.5 µM and 165 µM | > 100 µM and 129 µM | 75.4 µM and > 85 µM and 183 µM | 33.5 µM and 112 µM | 20.6 µM and 24.5 µM and 52.6 µM | > 100 µM and 22.2 µM and 46.2 µM | 18.8 µM | 13.7 µM and 18.3 µM | 19.4 µM and 21 µM | 68.2 µM and 27.3 µM | 32.5 µM | 19.3 µM and 22.7 µM | 17.4 µM | 3.43 µM and 1.45 µM | 8.7 µM and 6.39 µM | – |
| COc1ccc2nc3c(cc2c1)C(=O)CC(C(F)(F)F)C3 (centres undefined) | > 100 µM | > 100 µM | > 100 µM | > 100 µM | > 100 µM | > 100 µM | > 100 µM | > 100 µM | > 100 µM | > 100 µM | 0.714 µM | 2.57 µM | 1.28 µM | 1.26 µM | 1.08 µM | 13.7 µM | 0.847 µM | 0.108 µM | 0.602 µM | 0.262 µM |
| Cc1nc(N(C)C)nc(-c2cccc(-c3ccn(CCN(C)C)n3)c2)c1C | > 20 µM | – | > 20 µM | > 20 µM | > 20 µM | > 20 µM | > 20 µM | > 20 µM | > 20 µM | > 20 µM | > 20 µM | – | > 20 µM | > 20 µM | > 20 µM | > 20 µM | > 20 µM | > 20 µM | > 20 µM | > 20 µM |
| OC(c1cc2c(Cl)cc(Cl)cc2c2cc(C(F)(F)F)ccc12)C1CCCCN1 (centres undefined) | 3.55 µM | 3.91 µM | – | 3.95 µM | 3.62 µM | 3.26 µM | 4.95 µM | 4.12 µM | – | 3.42 µM | 2 µM | 1.85 µM | – | 1.96 µM | 1.71 µM | 2.3 µM | 2.27 µM | – | 1.78 µM | 1.49 µM |
| CCN(CC)CCCNc1c2cc(OC)ccc2nc2cccc([N+](=O)[O-])c12 | 0.426 µM | 0.263 µM | 0.314 µM | 0.061 µM | 0.534 µM | 0.224 µM | 0.418 µM | 0.32 µM | 0.554 µM | 0.359 µM | – | – | – | – | – | – | – | – | – | – |
| COc1nc(C(Cl)(Cl)Cl)c(Cl)c(OC)c1Cl | 73.2 µM | > 65.8 µM and 64.4 µM | 75.6 µM | > 72.1 µM and 82.6 µM | > 83.5 µM and 75.6 µM | 73.6 µM | > 62.9 µM and 112 µM | > 31.6 µM and 70.8 µM | > 67.4 µM and 62.3 µM | > 88.8 µM and 54.5 µM | – | > 45.4 µM | – | > 50.4 µM | – | > 41.1 µM | – | > 44.9 µM | > 50.4 µM | > 45.5 µM |
| CCCCCCOc1ccc(/C=N/Nc2cc(C)nc3ccc(Br)cc23)cc1 | 3.7 µM | 3.38 µM | 2.88 µM | 1.85 µM | 3.24 µM | 3.23 µM | 4.06 µM | 3.32 µM | 3.18 µM | 3.24 µM | 1.92 µM | 1.87 µM | 1.52 µM | 1.81 µM | 1.65 µM | 1.86 µM | 1.78 µM | 1.2 µM | 1.74 µM | 0.396 µM |
| O=P1(NCCCl)OCCC(OO)N1CCCl (centres undefined) | > 100 µM | 31.7 µM | 33.9 µM | > 100 µM | 39.4 µM | > 100 µM | > 100 µM | > 100 µM | > 83.4 µM | 63.7 µM | – | – | – | – | – | – | – | – | – | – |
| NC1=C(O)/C(=N/NS(=O)(=O)c2ccccc2)C(c2cccc(Cl)c2)O1 (centres undefined) | > 100 µM | 54.8 µM | 27 µM | 9.15 µM | 46.2 µM | 54.2 µM | > 47.4 µM | 66 µM | 19.1 µM | 66.7 µM | – | – | – | – | – | – | – | – | – | – |
| Nc1c(C(=O)Nc2cccc3ccccc23)sc2nc3c(cc12)CCCCCC3 | > 50 µM | > 50 µM | > 50 µM | > 50 µM | > 50 µM | > 50 µM | > 50 µM | > 50 µM | > 50 µM | > 50 µM | 2.05 µM | > 50 µM | 0.772 µM | > 50 µM | 1.79 µM | 2.03 µM | 17 µM | 2.38 µM | 1.62 µM | 0.429 µM |
| CCCCCC(=O)OC[n+]1ccc(-c2c(COC(=O)NC(C)C)c(COC(=O)NC(C)C)c3n2CCC3)cc1 | > 100 µM | > 100 µM | > 100 µM | > 80.9 µM | > 100 µM | > 100 µM | > 100 µM | > 100 µM | > 100 µM | > 100 µM | – | – | – | – | – | – | – | – | – | – |
| CC(=O)SC(C[N+](=O)[O-])c1ccccc1 (centres undefined) | > 46.7 µM | 35.9 µM | 4.85 µM | 6.85 µM | 11.1 µM | 25.7 µM | 5.18 µM | 50.3 µM | 5.36 µM | 28.5 µM | – | – | – | – | – | – | – | – | – | – |
| CN(CC(=O)O)Cc1c[nH]c2ccccc12 | > 100 µM | > 100 µM | > 100 µM | > 100 µM | > 100 µM | > 100 µM | > 100 µM | > 100 µM | > 100 µM | > 100 µM | – | – | – | – | – | – | – | – | – | – |
| O=C(/C=C/c1ccco1)c1cccc(Nc2nc(Nc3ccccc3)nc(Nc3ccccc3)n2)c1 | > 100 µM | > 100 µM | > 100 µM | > 24.1 µM | > 100 µM | > 100 µM | 5.47 µM | > 100 µM | > 31.8 µM | > 100 µM | 14.5 µM | > 66.7 µM | 5.12 µM | 23.7 µM | 5.13 µM | 0.279 µM | 20.5 µM | 4.34 µM | 48.8 µM | 5.01 µM |
| COc1cc(Cl)c(C)cc1NC(=O)c1cc2ccccc2cc1O | 14.4 µM | 10 µM | 13.4 µM | 11.9 µM | 22.8 µM | 10.7 µM | 6.17 µM | 4.01 µM | 14 µM | 8.14 µM | 3.4 µM | 1.69 µM | 2.5 µM | 3.77 µM | 2.33 µM | 1.46 µM | 1.7 µM | 2.85 µM | 1.49 µM | 2.79 µM |
